Measurements from the supplement of paper PMC10307832.

Each cell line was assayed with C1CCC(CC1)N(CCNCCC2=C3C(=C(C=C2)O)NC(=O)CO3)C(=O)CCNCCC4=CC(=C(C=C4)Cl)Cl [AZ505] + COc1cc2c(Oc3ccc(NC(=O)C4(C(=O)Nc5ccc(F)cc5)CC4)cc3F)ccnc2cc1OCCCN1CCOCC1 [Foretinib] (partner 0.25 µM) (assay: relative viability (nuclei count vs DMSO), 5 days (fraction); higher = more cells survive). Conditions: first compound 0.08 µM.
Method in brief: (§1)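 Each reported value is a median over duplicate plates. It expresses relative viability: treated-well nuclei count divided by vehicle-well nuclei count. Lung cancer cell lines in 1536-well plates were dosed by pin tool a day after seeding, alone with one drug or with a fixed anchor-drug dose plus five library-drug doses (not always all listed) in √10 steps, and nuclei were counted after 5 days.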
LC-2-ad showed a relative viability of 0.84. Cell Line NCI-H1944 has a relative viability of 0.875. Work on NCI-H1975 yielded a relative viability of 0.889. RERF-LC-KJ showed a relative viability of 0.906. With ABC-1 the relative viability was 0.856. NCI-H358 was tested, and the relative viability was 0.573. In the case of NCI-H650, the relative viability is reported as 1.01. PC-3 [JPC-3] showed a relative viability of 0.945.

Same assay, conditions: first compound 0.253 µM
LC-2-ad showed a relative viability of 0.941. With NCI-H1944 the relative viability was 0.903. NCI-H1975 was tested, and the relative viability was 0.928. RERF-LC-KJ gave a relative viability of 0.829. Cell Line ABC-1 has a relative viability of 1.21. NCI-H358 gave a relative viability of 0.732. NCI-H650 showed a relative viability of 1.14. Cell Line PC-3 [JPC-3] has a relative viability of 0.936.

Same assay, conditions: first compound 0.8 µM
LC-2-ad was tested, and the relative viability was 0.831. With NCI-H1944 the relative viability was 0.938. NCI-H1975 showed a relative viability of 0.902. Work on RERF-LC-KJ yielded a relative viability of 0.8. ABC-1 was tested, and the relative viability was 0.976. With NCI-H358 the relative viability was 0.629. With NCI-H650 the relative viability was 1.06. Work on PC-3 [JPC-3] yielded a relative viability of 0.923.

Same assay, conditions: first compound 2.53 µM
For LC-2-ad, the relative viability was 0.814. NCI-H1944 gave a relative viability of 0.806. In the case of NCI-H1975, the relative viability is reported as 0.946. Work on RERF-LC-KJ yielded a relative viability of 0.46. For ABC-1, the relative viability was 1.02. Work on NCI-H358 yielded a relative viability of 0.549. Work on NCI-H650 yielded a relative viability of 1.08. Cell Line PC-3 [JPC-3] has a relative viability of 0.991.

Same assay, conditions: first compound 8 µM
In the case of LC-2-ad, the relative viability is reported as 0.993. In the case of NCI-H1944, the relative viability is reported as 0.761. NCI-H1975 gave a relative viability of 0.96. Work on RERF-LC-KJ yielded a relative viability of 0.863. ABC-1 showed a relative viability of 0.863. NCI-H358 was tested, and the relative viability was 0.59. NCI-H650 was tested, and the relative viability was 1.01. PC-3 [JPC-3] showed a relative viability of 1.04.

The cell lines below were run with C1CCC(CC1)N(CCNCCC2=C3C(=C(C=C2)O)NC(=O)CO3)C(=O)CCNCCC4=CC(=C(C=C4)Cl)Cl [AZ505] + Cc1cc(Nc2cc(N3CCN(C)CC3)nc(Sc3ccc(NC(=O)C4CC4)cc3)n2)n[nH]1 [Tozasertib] (partner 0.1 µM) in the same assay as above. Conditions: first compound 0.08 µM.
Method in brief: as §1
With LC-2-ad the relative viability was 0.478. NCI-H1944 was tested, and the relative viability was 0.248. NCI-H1975 was tested, and the relative viability was 0.649. RERF-LC-KJ was tested, and the relative viability was 0.432. For ABC-1, the relative viability was 0.116. NCI-H358 was tested, and the relative viability was 0.094. Work on NCI-H650 yielded a relative viability of 0.733. Work on PC-3 [JPC-3] yielded a relative viability of 0.83.

Same assay, conditions: first compound 0.253 µM
Cell Line LC-2-ad has a relative viability of 0.415. NCI-H1944 gave a relative viability of 0.249. Work on NCI-H1975 yielded a relative viability of 0.733. RERF-LC-KJ gave a relative viability of 0.432. With ABC-1 the relative viability was 0.185. Cell Line NCI-H358 has a relative viability of 0.0964. With NCI-H650 the relative viability was 0.705. In the case of PC-3 [JPC-3], the relative viability is reported as 0.919.

Same assay, conditions: first compound 0.8 µM
Cell Line LC-2-ad has a relative viability of 0.436. For NCI-H1944, the relative viability was 0.24. Work on NCI-H1975 yielded a relative viability of 0.731. In the case of RERF-LC-KJ, the relative viability is reported as 0.467. ABC-1 gave a relative viability of 0.168. In the case of NCI-H358, the relative viability is reported as 0.0966. Work on NCI-H650 yielded a relative viability of 0.729. In the case of PC-3 [JPC-3], the relative viability is reported as 0.87.

Same assay, conditions: first compound 2.53 µM
Cell Line LC-2-ad has a relative viability of 0.411. Work on NCI-H1944 yielded a relative viability of 0.236. Work on NCI-H1975 yielded a relative viability of 0.638. Work on RERF-LC-KJ yielded a relative viability of 0.459. For ABC-1, the relative viability was 0.168. For NCI-H358, the relative viability was 0.108. With NCI-H650 the relative viability was 0.726. Work on PC-3 [JPC-3] yielded a relative viability of 0.848.

Same assay, conditions: first compound 8 µM
For LC-2-ad, the relative viability was 0.413. With NCI-H1944 the relative viability was 0.236. NCI-H1975 showed a relative viability of 0.741. RERF-LC-KJ gave a relative viability of 0.388. In the case of ABC-1, the relative viability is reported as 0.167. In the case of NCI-H358, the relative viability is reported as 0.104. NCI-H650 was tested, and the relative viability was 0.736. PC-3 [JPC-3] showed a relative viability of 0.867.

Each cell line was assayed with C1CCC(CC1)N(CCNCCC2=C3C(=C(C=C2)O)NC(=O)CO3)C(=O)CCNCCC4=CC(=C(C=C4)Cl)Cl [AZ505] + NC(=O)Nc1cc(-c2cccc(F)c2)sc1C(=O)N[C@H]1CCCNC1 [AZD7762] (partner 0.2 µM) in the same assay as above. Conditions: first compound 0.08 µM.
Method in brief: as §1
LC-2-ad gave a relative viability of 0.801. NCI-H1944 showed a relative viability of 0.455. NCI-H1975 showed a relative viability of 0.674. In the case of RERF-LC-KJ, the relative viability is reported as 0.95. ABC-1 was tested, and the relative viability was 0.637. For NCI-H358, the relative viability was 0.466. For NCI-H650, the relative viability was 0.917. PC-3 [JPC-3] gave a relative viability of 0.784.

Same assay, conditions: first compound 0.253 µM
For LC-2-ad, the relative viability was 0.821. NCI-H1944 gave a relative viability of 0.519. NCI-H1975 showed a relative viability of 0.614. With RERF-LC-KJ the relative viability was 0.964. In the case of ABC-1, the relative viability is reported as 0.537. Work on NCI-H358 yielded a relative viability of 0.52. For NCI-H650, the relative viability was 0.243.

Same assay, conditions: first compound 0.8 µM
LC-2-ad was tested, and the relative viability was 0.867. In the case of NCI-H1944, the relative viability is reported as 0.727. NCI-H1975 showed a relative viability of 0.765. Cell Line RERF-LC-KJ has a relative viability of 0.923. With ABC-1 the relative viability was 0.918. Cell Line NCI-H358 has a relative viability of 0.422. Work on NCI-H650 yielded a relative viability of 0.879. PC-3 [JPC-3] showed a relative viability of 0.843.

Same assay, conditions: first compound 2.53 µM
LC-2-ad showed a relative viability of 0.847. In the case of NCI-H1944, the relative viability is reported as 0.389. Work on NCI-H1975 yielded a relative viability of 0.703. RERF-LC-KJ showed a relative viability of 0.98. For ABC-1, the relative viability was 0.825. In the case of NCI-H650, the relative viability is reported as 1.29. Cell Line PC-3 [JPC-3] has a relative viability of 0.873.

Same assay, conditions: first compound 8 µM
With LC-2-ad the relative viability was 0.832. Cell Line NCI-H1944 has a relative viability of 0.474. For NCI-H1975, the relative viability was 0.81. Cell Line RERF-LC-KJ has a relative viability of 0.909. With ABC-1 the relative viability was 0.859. For NCI-H358, the relative viability was 0.526. For NCI-H650, the relative viability was 0.944. PC-3 [JPC-3] gave a relative viability of 1.06.

Each cell line was assayed with Cn1c(=O)n(-c2ccc(C(C)(C)C#N)cc2)c2c3cc(-c4cnc5ccccc5c4)ccc3ncc21 [Dactolisib] + Cc1nc(NC(=O)N2CCC[C@H]2C(N)=O)sc1-c1ccnc(C(C)(C)C(F)(F)F)c1 [Alpelisib] (partner 2 µM) in the same assay as above. Conditions: first compound 0.002 µM.
Method in brief: as §1
Cell Line LC-2-ad has a relative viability of 0.916. NCI-H1944 showed a relative viability of 0.898. In the case of NCI-H1975, the relative viability is reported as 0.612. RERF-LC-KJ showed a relative viability of 0.806. ABC-1 was tested, and the relative viability was 1.2. NCI-H358 showed a relative viability of 0.951. For NCI-H650, the relative viability was 1.19. Cell Line PC-3 [JPC-3] has a relative viability of 1.15.

Same assay, conditions: first compound 0.006325 µM
NCI-H1944 gave a relative viability of 0.796. NCI-H1975 gave a relative viability of 0.549. Cell Line RERF-LC-KJ has a relative viability of 0.818. ABC-1 showed a relative viability of 1.01. NCI-H358 gave a relative viability of 0.786. NCI-H650 was tested, and the relative viability was 0.964. In the case of PC-3 [JPC-3], the relative viability is reported as 1.02.

Same assay, conditions: first compound 0.02 µM
For LC-2-ad, the relative viability was 0.817. NCI-H1944 was tested, and the relative viability was 0.72. NCI-H1975 gave a relative viability of 0.396. Cell Line RERF-LC-KJ has a relative viability of 0.742. ABC-1 was tested, and the relative viability was 0.816. In the case of NCI-H358, the relative viability is reported as 0.718. Cell Line NCI-H650 has a relative viability of 1.01. With PC-3 [JPC-3] the relative viability was 0.977.

Same assay, conditions: first compound 0.06325 µM
Cell Line LC-2-ad has a relative viability of 0.64. For NCI-H1944, the relative viability was 0.384. Cell Line NCI-H1975 has a relative viability of 0.238. RERF-LC-KJ gave a relative viability of 0.543. ABC-1 was tested, and the relative viability was 0.571. For NCI-H358, the relative viability was 0.3. NCI-H650 was tested, and the relative viability was 0.46. Cell Line PC-3 [JPC-3] has a relative viability of 0.78.

Same assay, conditions: first compound 0.2 µM
LC-2-ad showed a relative viability of 0.533. In the case of NCI-H1944, the relative viability is reported as 0.279. NCI-H1975 gave a relative viability of 0.201. With RERF-LC-KJ the relative viability was 0.551. Work on ABC-1 yielded a relative viability of 0.431. NCI-H358 showed a relative viability of 0.18. In the case of NCI-H650, the relative viability is reported as 0.507. Cell Line PC-3 [JPC-3] has a relative viability of 0.641.
